This note sets out measurements from patent US12692261B2, “Substituted heterocyclic compounds and therapeutic uses thereof” (Bayer Aktiengesellschaft, priority 2020, dated 2026).

Read-outs that look alike come from different tables or passages of the source. A value given as a limit tells only on which side of the number the result lay.

One assay concerns the target T1, full-length human CSNK1D (Homo sapiens, UniProt P48730).
T1 construct: N-terminal Glutathion-S-Transferase (GST) and full-length human CSNK1D; purchased Life Technologies PV3665; host or cells: baculovirus infected insect cells
The assay can be described thus: CSNK1D Assay (ADP-Glo, 1 μM ATP). The format is biochemical. The note with it: Table 3, read-out: CSNK1D IC50 [mol/l] (median). The method in brief: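 Enzyme is N-terminal GST-tagged full-length human CSNK1D from baculovirus-infected insect cells (typically about 0.5 ng/μL), with a biotinylated peptide substrate and 1 μM ATP. Compound pre-incubated 15 min at 22° C in HEPES pH 7.5 buffer; ADP formed is read by ADP-Glo luminescence.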

Assay [1] has as its target T2, wild-type Epidermal Growth Factor Receptor (EGFR) (Homo sapiens, UniProt P00533).
T2 construct: a fragment of human EGFR (amino acids R669 to A1210); made in house; host or cells: Sf9 insect cells
The assay can be described thus: WT-EGFR Kinase Assay (TR-FRET, 2 mM ATP). It counts as biochemical. In short, it runs like this:
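GST-fused human EGFR fragment (R669-A1210) from Sf9 cells, typically 7.6 pg/μL, pre-incubated with compound 15 min at 22° C in Hepes pH 7.0 buffer with MgCl2, DTT and vanadate; biotinylated peptide substrate. After EDTA stop, phosphopeptide detected by TR-FRET (anti-phosphotyrosine Tb-cryptate/streptavidin-XL665), 665/620 nm emission ratio.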

Where [2] appears, read: read-out: EGFR Wildtyp 2 mM ATP IC50 [mol/l] (median), Table 4.
The mark [3] stands for this setting: EGFR Wildtyp 2 mM ATP IC50 [mol/l] (median), Table 4.

T1 sequence (P48730 whole entry): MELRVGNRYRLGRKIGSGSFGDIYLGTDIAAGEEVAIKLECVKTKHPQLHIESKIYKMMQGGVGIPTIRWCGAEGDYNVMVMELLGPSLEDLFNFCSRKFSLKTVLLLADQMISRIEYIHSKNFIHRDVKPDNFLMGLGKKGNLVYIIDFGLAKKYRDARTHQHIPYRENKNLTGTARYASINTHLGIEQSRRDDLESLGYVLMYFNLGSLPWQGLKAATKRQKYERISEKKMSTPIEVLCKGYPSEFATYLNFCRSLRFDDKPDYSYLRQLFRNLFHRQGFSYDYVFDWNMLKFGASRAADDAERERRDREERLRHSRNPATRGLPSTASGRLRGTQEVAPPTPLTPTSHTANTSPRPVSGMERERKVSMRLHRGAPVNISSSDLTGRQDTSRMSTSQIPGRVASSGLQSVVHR
T2 sequence (P00533 669-1210): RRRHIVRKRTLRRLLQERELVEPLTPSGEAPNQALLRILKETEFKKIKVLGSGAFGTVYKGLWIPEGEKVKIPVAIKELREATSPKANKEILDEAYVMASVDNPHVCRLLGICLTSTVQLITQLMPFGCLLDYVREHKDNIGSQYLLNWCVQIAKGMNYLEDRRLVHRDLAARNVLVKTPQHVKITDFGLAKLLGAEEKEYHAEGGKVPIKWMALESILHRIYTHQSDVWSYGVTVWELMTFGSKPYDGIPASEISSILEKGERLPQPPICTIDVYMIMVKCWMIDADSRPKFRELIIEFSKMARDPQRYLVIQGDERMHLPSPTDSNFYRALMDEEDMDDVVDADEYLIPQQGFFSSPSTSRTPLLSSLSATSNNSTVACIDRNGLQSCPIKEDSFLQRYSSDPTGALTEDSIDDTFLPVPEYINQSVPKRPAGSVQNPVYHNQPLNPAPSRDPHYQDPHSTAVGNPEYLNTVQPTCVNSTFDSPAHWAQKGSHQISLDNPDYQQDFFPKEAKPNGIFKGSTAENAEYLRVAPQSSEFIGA

Turning to `Cc1cnc2c(-c3ccccn3)c(-c3ccnc(NC(=O)C(CC(F)F)c4ccc(F)cc4)c3)[nH]c2c1` (single isomer, unassigned) [Example 9, 4,4-difluoro-2-(4-fluorophenyl)-N-{4-[6-methyl-3-(pyridin-2-yl)-1H-pyrrolo[3,2-b]pyridin-2-yl]pyridin-2-yl}butanamide], the figures for the IC50 (at full-length human CSNK1D; in assay [1] (setting [2])) were 32.8 nM and more than 20000 nM, respectively.
The like results for `O=C(Nc1cc(-c2[nH]c3cccnc3c2-c2ccccn2)ccn1)C(CC(F)F)c1ccc(F)cc1` (single isomer, unassigned; (-)) [Example 12, (−)-4,4-difluoro-2-(4-fluorophenyl)-N-{4-[3-(pyridin-2-yl)-1H-pyrrolo[3,2-b]pyridin-2-yl]pyridin-2-yl}butanamide] were, in that order, 12.4 nM and more than 20000 nM.
With `O=C(Nc1cc(-c2[nH]c3nccnc3c2-c2ccccn2)ccn1)[C@@H](CC(F)F)c1ccc(F)cc1` (single isomer, unassigned) [Example 32], the IC50 at full-length human CSNK1D is 4.55 nM; in assay [1] (setting [3]) it was more than 20000 nM.
On the same counts, the results for `O=C(Nc1cc(-c2[nH]c3c(OC4CC4)cc(F)nc3c2-c2ccccn2)ccn1)C(CC(F)F)c1ccc(F)cc1` (single isomer, unassigned) [Example 43, N-{4-[7-(cyclopropyloxy)-5-fluoro-3-(pyridin-2-yl)-1H-pyrrolo[3,2-b]pyridin-2-yl]pyridin-2-yl}-4,4-difluoro-2-(4-fluorophenyl)butanamide] are 7.64 nM and more than 20000 nM.
For `COc1cnc2c(-c3ccccn3)c(-c3ccnc(NC(=O)C(CC(F)F)c4ccc(F)cc4)c3)[nH]c2n1` (centres unmarked) [Example 101, 4,4-difluoro-2-(4-fluorophenyl)-N-{4-[3-methoxy-7-(pyridin-2-yl)-5H-pyrrolo[2,3-b]pyrazin-6-yl]pyridin-2-yl}butanamide], the figures for the IC50 (at full-length human CSNK1D; in assay [1] (setting [3])) were 9.17 nM and more than 20000 nM, respectively.
On the same counts, the results for `O=C(Nc1cc(-c2[nH]c3c(OCC(F)(F)F)ncnc3c2-c2ccccn2)ccn1)C(CC(F)F)c1ccc(F)cc1` (racemic) [Example 122, (2RS)-4,4-difluoro-2-(4-fluorophenyl)-N-{4-[7-(pyridin-2-yl)-4-(2,2,2-trifluoroethoxy)-5H-pyrrolo[3,2-d]pyrimidin-6-yl]pyridin-2-yl}butanamide] are 7.04 nM and more than 20000 nM.
On the same counts, the results for `O=C(Nc1cc(-c2[nH]c3c(OCC(F)(F)F)ncnc3c2-c2ccccn2)ccn1)C(CC(F)F)c1ccc(F)cc1` (single isomer, unassigned) [Example 123, (2R or S)-4,4-difluoro-2-(4-fluorophenyl)-N-{4-[7-(pyridin-2-yl)-4-(2,2,2-trifluoroethoxy)-5H-pyrrolo[3,2-d]pyrimidin-6-yl]pyridin-2-yl}butanamide] are 4.49 nM and more than 20000 nM.
On the same counts, the results for `O=C(Nc1cc(-c2[nH]c3ccc(F)nc3c2-c2cc(F)ccn2)ccn1)C(CC(F)F)c1ccc(F)cc1` (single isomer, unassigned) [Example 96, (2R or S)-4,4-difluoro-N-{4-[5-fluoro-3-(4-fluoropyridin-2-yl)-1H-pyrrolo[3,2-b]pyridin-2-yl]pyridin-2-yl}-2-(4-fluorophenyl)butanamide] are 10.4 nM and more than 20000 nM.
In the case of `Cc1cc2[nH]c(-c3ccnc(NC(=O)C(CC(F)F)c4ccc(F)cc4)c3)c(-c3ccccn3)c2nc1F` (racemic) [Example 33, (rac)-4,4-difluoro-N-{4-[5-fluoro-6-methyl-3-(pyridin-2-yl)-1H-pyrrolo[3,2-b]pyridin-2-yl]pyridin-2-yl}-2-(4-fluorophenyl)butanamide], the IC50 is 37.3 nM at full-length human CSNK1D and more than 20000 nM in assay [1] (setting [3]).
The like results for `O=C(Nc1cc(-c2[nH]c3c(N4CCNCC4)ccnc3c2-c2ccccn2)ccn1)C(CC(F)F)c1ccc(F)cc1` (single isomer, unassigned) [Example 93, (2R or S)-4,4-difluoro-2-(4-fluorophenyl)-N-{4-[7-(piperazin-1-yl)-3-(pyridin-2-yl)-1H-pyrrolo[3,2-b]pyridin-2-yl]pyridin-2-yl}butanamide] were, in that order, 17.3 nM and more than 20000 nM.
As for `O=C(Nc1cc(-c2[nH]c3nccnc3c2-c2ccccn2)ccn1)C(CC(F)(F)F)c1ccc(F)cc1` (racemic) [Example 119, (2RS)-4,4,4-trifluoro-2-(4-fluorophenyl)-N-{4-[7-(pyridin-2-yl)-5H-pyrrolo[2,3-b]pyrazin-6-yl]pyridin-2-yl}butanamide], the IC50 on full-length human CSNK1D was 7.07 nM; in assay [1] (setting [3]), more than 20000 nM.
On the same counts, the results for `O=C(Nc1cc(-c2[nH]c3cncnc3c2-c2ccccn2)ccn1)C(CC(F)F)c1ccc(F)cc1` (racemic) [Example 13, 4,4-difluoro-2-(4-fluorophenyl)-N-{4-[7-(pyridin-2-yl)-5H-pyrrolo[3,2-d]pyrimidin-6-yl]pyridin-2-yl}butanamide] are 12.3 nM and more than 20000 nM.
The like results for `O=C(Nc1cc(-c2[nH]c3c(OCC(F)F)cc(F)nc3c2-c2ccccn2)ccn1)C(CC(F)F)c1ccc(F)cc1` (single isomer, unassigned) [Example 29, (2R or S)—N-{4-[7-(2,2-difluoroethoxy)-5-fluoro-3-(pyridin-2-yl)-1H-pyrrolo[3,2-b]pyridin-2-yl]pyridin-2-yl}-4,4-difluoro-2-(4-fluorophenyl)butanamide] were, in that order, 2.32 nM and more than 20000 nM.
